# Reference: publication PMC8670630 (Bioorganic & medicinal chemistry letters, 2021)
# What was measured:
# [1] = molecular target: human sulfide:quinone oxidoreductase (SQOR) (Homo sapiens, UniProt Q9Y6N5); assay: SQOR inhibition; type: biochemical
# [2] = Mouse plasma protein binding; type: in vitro ADME
# Caco-2 = Caco-2 permeability; type: in vitro ADME
# mammalian cells = details: in vitro tests; ref [21],[22]; cited from earlier work
# CoQ-binding site in SQOR = details: in vitro tests; ref [21],[22]; cited from earlier work
# [3] = system: murine model of heart failure; details: ref [21],[22]; cited from earlier work
# Sequence of human sulfide:quinone oxidoreductase (SQOR) (Q9Y6N5 whole entry): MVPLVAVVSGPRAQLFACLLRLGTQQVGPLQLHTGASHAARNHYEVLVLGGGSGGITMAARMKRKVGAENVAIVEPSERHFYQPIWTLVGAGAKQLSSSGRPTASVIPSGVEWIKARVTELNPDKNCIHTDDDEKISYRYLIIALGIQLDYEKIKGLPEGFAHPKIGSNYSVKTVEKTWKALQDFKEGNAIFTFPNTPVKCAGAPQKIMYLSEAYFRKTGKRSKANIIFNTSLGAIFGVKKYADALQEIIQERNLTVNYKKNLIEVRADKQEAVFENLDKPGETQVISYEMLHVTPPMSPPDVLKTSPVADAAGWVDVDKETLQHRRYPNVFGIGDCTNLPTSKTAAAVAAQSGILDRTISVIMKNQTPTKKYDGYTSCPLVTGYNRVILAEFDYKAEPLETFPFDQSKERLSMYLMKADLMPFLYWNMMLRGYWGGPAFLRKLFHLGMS
smiles,measurement,setting,value
CCOc1nc(-c2ccccc2)nc(-c2ccccc2)c1C#N [Compound 24],fold less active than the equivalent pyridine 21,"[1]; SQOR inhibition, 24 versus 21",2 fold
COc1nc(-c2ncccc2C)cc(-c2ccc(F)cc2)c1C#N [Compound 15],Mouse Plasma Protein Binding (% bound),[2],99.64 % bound
same,Caco-2 permeability A→B,Caco-2; A→B,0.455 1 × 10^−6 cm/s
same,Caco-2 permeability B→A,Caco-2; B→A,0.769 1 × 10^−6 cm/s
COc1nc(-c2ncccc2C)cc(-c2ccc(N)cc2)c1C#N [Compound 19],toxicity in mammalian cells,mammalian cells,little or no toxicity
same,Mouse Plasma Protein Binding (% bound),[2],97.8 % bound
same,specificity for the CoQ-binding site in SQOR,CoQ-binding site in SQOR,high degree of specificity
same,effect on cardiac function and progression to heart failure,[3],preserves cardiac function and prevents the progression to heart failure
COc1nc(-c2ccccc2)cc(-c2ccc(Cl)cc2Cl)c1C#N [Compound 7],activity in IC50 assay (in words),[1],inactivity
